In data set [1] the target is T1, TLR4 (Mus musculus, UniProt Q9QUK6).
T1 construct: from tissue; host or cells: pancreatic islets of C57BL/6 mice
T1 sequence (Q9QUK6 26-835): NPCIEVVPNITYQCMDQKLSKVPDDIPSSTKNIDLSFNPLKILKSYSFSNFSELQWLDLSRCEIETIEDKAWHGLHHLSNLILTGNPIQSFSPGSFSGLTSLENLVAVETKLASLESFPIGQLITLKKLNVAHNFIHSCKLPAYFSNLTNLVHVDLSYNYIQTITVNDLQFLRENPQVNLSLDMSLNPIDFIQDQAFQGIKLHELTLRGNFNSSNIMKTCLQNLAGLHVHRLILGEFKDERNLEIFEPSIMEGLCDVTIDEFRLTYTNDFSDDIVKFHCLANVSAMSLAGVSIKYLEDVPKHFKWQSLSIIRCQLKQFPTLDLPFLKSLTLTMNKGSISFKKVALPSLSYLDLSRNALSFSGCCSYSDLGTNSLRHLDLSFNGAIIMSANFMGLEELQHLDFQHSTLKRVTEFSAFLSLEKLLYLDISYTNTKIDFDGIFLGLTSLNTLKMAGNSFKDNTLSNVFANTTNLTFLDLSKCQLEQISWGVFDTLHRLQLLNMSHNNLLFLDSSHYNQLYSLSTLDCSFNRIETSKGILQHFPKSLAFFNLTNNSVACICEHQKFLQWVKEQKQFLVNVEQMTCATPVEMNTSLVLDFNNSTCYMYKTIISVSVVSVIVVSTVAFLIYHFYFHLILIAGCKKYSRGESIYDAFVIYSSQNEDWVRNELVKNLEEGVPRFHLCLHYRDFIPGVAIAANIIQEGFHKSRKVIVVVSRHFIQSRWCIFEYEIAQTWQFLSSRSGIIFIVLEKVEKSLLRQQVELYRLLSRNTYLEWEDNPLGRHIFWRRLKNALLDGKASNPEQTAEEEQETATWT
The experiment in a line: LPS challenge of drug-eluting mouse islets, IL-6 expression (Example 15). As to conditions: for protection from LPS challenge (IL-6 expression): 24 h after modification or treatment. The format is cell-based. The protocol: (§1) In order to study the function and efficacy of the cleavable prodrug, in vitro experiments were performed challenging mouse islets with LPS at different times post-modification. […] HEK Blue hTLR4 reporter cells were treated with either free TAK-242 or the TAK-PhSO2-Linker prodrug, followed by LPS challenge.
(§2) Data represented as means±SEM (n=3 per group). Statistical significance determined by two-tailed unpaired t test. n.s. means not significant.

For the next data set, the target named is T2, hTLR4 (Homo sapiens, UniProt O00206).
T2 construct: expressed in transfected cells; host or cells: HEK Blue hTLR4 reporter cells
The experiment in a line: HEK Blue hTLR4 reporter cells, TLR4-mediated NFkB upregulation, colorimetric assay. In kind it is cell-based. The settings on record: brief treatment, unconjugated compound. The protocol: as §1, §2

Data set [2] deals with T1, TLR4. The experiment in a line: Extended protection of modified islets, IL-6 mRNA after LPS challenge (Example 5). In kind it is cell-based, murine. As to conditions: LPS 2 ug/mL 4 hrs, 24 hrs after treatment or islet modification; unprotected islets ~59-fold. The protocol:
Compared to free TAK-242 pre-treatment, the TAK-Linker compound covalently attached to the islet surface provides extended protection.
First, islets were modified with either TAK-Linker or TAK-HexOH (1 hr NHS-DBCO followed by 1 hr TAK compounds), or treated with free TAK-242 (3 uM, 30 min @37° C.). All islets were rinsed with culture media (RPMI 1640, 10% FBS) prior to culturing. After overnight culture, the treated groups were challenged with LPS (2 ug/mL, 4 hrs @ 37° C.), a TLR4-specific agonist, and compared to unprotected islets (LPS) and unprotected/untreated control islets.
Total RNA was isolated from the islets for mRNA analysis. The gene expression of cytokine IL-6 was used for evaluation due to its key role in acute inflammation.

Data set [3] has as its target T1, TLR4. The experiment in a line: rHMGB1 challenge of mouse islets, gene expression analysis. The format is cell-based, C57BL/6 mice. The settings on record: 1 μg/mL rHMGB1, 4 h, TAK-242 pretreatment. The protocol: Similar results were observed when islets were challenged with high-mobility group box 1 (HMGB1; FIG. 26), an endogenous damage-associated molecular pattern (DAMP) known to elicit acute inflammation through TLR4. […] Islets from C57BL/6 mice were challenged with 1 μg/mL rHMGB1 with or without TAK-242 pretreatment. After 4 h, total RNA was isolated from the islets for gene expression analysis. The proinflammatory genes (A) CXCL10 and (B) CCL2 were examined in the samples. Data represented as means±SEM. *P<0.05 (n=3 for all samples, unpaired two-tailed t test).

The test system of data set [4] is TLR4. As to conditions: human and murine models; depending on cell type; read-out: TLR4 inhibition IC50; cited from earlier work.
In data set [5] the target is T1, TLR4. The experiment in a line: LPS challenge of mouse islets, RT-PCR gene expression and multiplex cytokine analysis. The format is cell-based, C57BL/6 mice. The protocol: To initially investigate whether free TAK-242 can protect islets from TLR4-mediated inflammation, inflammatory responses in islets from C57BL/6 mice challenged with the canonical TLR4 ligand lipopolysaccharide (LPS) were examined. As discussed in detail below, islets were treated with TAK-242 (3 μM for 30 min) before a 24-h challenge with a high dose of LPS (2 μg/mL). After 24 h, culture media was analyzed by multiplex assay, and mRNA was isolated from islet cells for analysis by real-time polymerase chain reaction (RT-PCR).
Materials and Methods. After overnight culture, islets were washed in Dulbecco's PBS (Caisson Labs, Smithfield, Utah, USA) before treatment with TAK-242 (3 μM, 30 min; MedchemExpress) and 2 μg/mL LPS-EB (Ultrapure from Escherichia coli O111:B4; Invivogen) for 24 h at 37° C. and 5% CO2. Islets were washed once with cold Dulbecco's PBS immediately after treatment, and total RNA was isolated from samples using TRIzol […] and converted to cDNA using a high capacity cDNA reverse transcription kit (Applied Biosystems) following manufacturer protocols. Quantitative expression of genes of interest was determined using RT2 SYBR Green qPCR master mix (Qiagen) on a Bio-Rad CFX Connect (Bio-Rad) with the following program: 95° C., 10 min and 40 cycles of 95° C., 15 sec, 60° C., 1 min. Primers for quantitative real-time PCR analysis were purchased from commercially available stock from Integrated DNA Technologies (Coralville). Relative gene expression was calculated using the 2-ΔΔCT method normalized to 18S mRNA. Cytokines from assay culture media were analyzed using Milliplex MCYTOMAG-70K Assay (EMD Millipore). Samples were prepared following manufacturer guidelines. Analysis was performed after overnight incubation at 4° C. on a Luminex 200 (Luminex). Samples were assayed in triplicate and analyzed in triplicate for cDNA or in duplicate for multiplex assay.

The subject of data set [6] is streptozotocin-induced diabetes. Nature of the data set: Syngeneic islet transplant in streptozotocin-induced diabetic mice. The format is in vivo, C57BL/6 mice. The protocol:
With the promising in vitro results described above, islet transplantation experiments were performed in a syngeneic wild-type C57BL/6 streptozotocin-induced diabetes model. Recipient male C57BL/6 mice 6-7 weeks old were made diabetic by a single intraperitoneal injection of streptozotocin (200 mg/kg; Sigma-Aldrich). Diabetic mice are defined as having a nonfasting blood glucose >400 mg/dL for 2 consecutive days. Prior to transplantation, islets were untreated, pretreated with 3 μM TAK-242, or modified with TAK-PhSO2-Linker as described above. Diabetic C57BL/6 mice were anesthetized under isofluorane, and a field between the rib cage and pelvis on the left side was disinfected by 1% providone iodine scrub and 70% ethanol. A minimal incision (˜8 to 10 mm) into the peritoneum was made to expose the kidney, and a small cut (˜2 mm) was made in the kidney capsule using a 30G needle. Then a flame-blunted glass pipette tip was inserted into the kidney capsule through the cut to create a pocket between the renal cortex and capsule. Islets were then injected into the pocket via PE-50 polyethylene tubing (Becton Dickinson) connected to a 1 mL syringe filled with RPMI 1640 driven by an NE-300 syringe pump (New Era Pump Systems). At the completion of islet infusion, the incision was closed with 4-0 violet monofilament (Ethicon) via continuous nonlocking sutures. After closing, mice received a 0.1 mg/kg bolus of buprenorphine subcutaneously near the incision. Engraftment success was measured by nonfasting blood glucose measurements 5 times a week over a 4-week period with a Breeze 2 Glucose Monitor (Bayer). Mice were considered cured on the first day of two consecutive glucose measurements below 200 mg/dL (˜11 mM).
Diabetic mice were separated into untreated (n=4), TAK-242 (n=6), and TAK-PhO2-Linker (n=6) groups. A marginal dose of ˜100 islets was determined by titrating doses of TAK-242-treated islets. […] Diabetic C57BL/6 mice were transplanted with (FIG. 33A) 200, (FIG. 33B) 150, or (FIG. 33C) 100 TAK-242-treated islets. Blood glucose was monitored for 4 weeks before IPGTT on day 30 and at nephrectomy on day 35. […] This marginal dose was transplanted into the kidney subcapsular space in each group, and blood glucose was monitored for 4 weeks.

Another data set relates to MIN6 cells. The experiment in a line: MTT viability assay in MIN6 beta cells. The settings on record: days 1, 3 and 7, effective concentrations. The format is cell-based. The protocol:
MIN6 cells were seeded in a 96-well plate at 15,000 cells per well in RPMI. After overnight culture, culture media was replaced with media containing the indicated TAK-242 concentrations. The control (0 nM TAK-242) contained 0.1% DMSO. Media was changed on day 3. On days 1, 3, and 7, an MTT viability assay was performed. Data are represented as means±SEM. P>0.05 for all samples (one-way ANOVA with Tukey's multiple-comparisons test).
(Formazan colour is commonly taken as a measure of viable cells.)

The nature of data set [7]: Linker prodrug stability and release kinetics in PBS by LC-MS. The format is physicochemical. As to conditions: phosphate-buffered saline; PBS pH 7.4, 37° C.; read-out: half-life of TAK-PhSO2-Linker (release of free TAK-242) (converted). The protocol:
The stability of the linker prodrug was explored in this example. The TAK-PhSO2-Linker compound was incubated in phosphate-buffered saline (PBS; pH 7.4) at 37° C., and the solution sampled over the course of several days. Liquid chromatography-mass spectrometry (LC-MS) was used to identify and quantitate the compounds released from this prodrug.

Molecules are shown by their SMILES. “Also recorded” adds a separate entry of the source.

The IC50 is the point on the concentration scale where inhibition reaches its midpoint. A word on the half-life: it is the time in which the quantity being followed falls by half.

T2 sequence (O00206 24-839): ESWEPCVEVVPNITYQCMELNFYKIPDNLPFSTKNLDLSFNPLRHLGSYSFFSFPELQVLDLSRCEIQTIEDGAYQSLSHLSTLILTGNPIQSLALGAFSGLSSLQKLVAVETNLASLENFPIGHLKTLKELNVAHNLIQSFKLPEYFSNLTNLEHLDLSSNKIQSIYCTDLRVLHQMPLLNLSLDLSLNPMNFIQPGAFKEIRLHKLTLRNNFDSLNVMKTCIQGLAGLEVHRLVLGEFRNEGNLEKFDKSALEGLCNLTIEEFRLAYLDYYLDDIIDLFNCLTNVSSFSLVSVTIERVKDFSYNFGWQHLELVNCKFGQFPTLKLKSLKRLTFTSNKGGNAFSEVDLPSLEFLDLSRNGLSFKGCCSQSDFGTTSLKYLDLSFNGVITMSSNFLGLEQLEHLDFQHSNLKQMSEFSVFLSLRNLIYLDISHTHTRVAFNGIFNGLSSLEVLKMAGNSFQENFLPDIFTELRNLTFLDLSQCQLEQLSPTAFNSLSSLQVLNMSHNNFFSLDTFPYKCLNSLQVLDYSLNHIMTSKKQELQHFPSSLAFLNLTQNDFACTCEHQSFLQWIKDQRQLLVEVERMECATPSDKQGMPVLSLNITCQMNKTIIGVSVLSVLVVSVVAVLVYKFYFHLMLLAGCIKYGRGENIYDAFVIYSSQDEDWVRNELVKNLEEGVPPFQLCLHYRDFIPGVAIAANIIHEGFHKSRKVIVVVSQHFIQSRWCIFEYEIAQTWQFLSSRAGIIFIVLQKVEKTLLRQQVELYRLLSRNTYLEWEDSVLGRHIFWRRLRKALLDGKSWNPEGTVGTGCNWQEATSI

For the molecule `O=C(CCC(=O)N1Cc2ccccc2C#Cc2ccccc21)NCCOCCOCCOCCOCCC(=O)ON1C(=O)CCC1=O` [NHS-PEG4-DBCO, dibenzocyclooctyne-PEG4-N-hydroxysuccinimidyl ester], the “protection against LPS-mediated inflammation (IL-6)” value on TLR4 [1] (islet surfaces functionalized only, no prodrug) was “no protection against LPS-mediated inflammation”.
With `CCOC(=O)C1=CCCCC1S(=O)(=O)Nc1ccc(F)cc1Cl` (stereo not shown) [TAK-242, ethyl 6-(N-(2-chloro-4-fluorophenyl)sulfamoyl)cyclohex-1-ene-1-carboxylate], at hTLR4, the “inhibition of TLR4-mediated NFkB upregulation after LPS challenge” value is given as “completely blocked LPS; also recorded: completely inhibited the upregulation of NFkB”. Besides, at TLR4 [2], the “increase in IL-6 expression” value is about 32 fold. For the same molecule, the “CXCL10 and CCL2 gene expression after rHMGB1 challenge” value at TLR4 [3] is recorded as “protection of mouse islets against rHMGB1-mediated TLR4 inflammation”. For the same molecule, in the data set on TLR4 [4], the IC50 was 1 to 33 nM. For the same molecule, the “protection from LPS challenge (IL-6 expression)” value at TLR4 [1] is “beings to lose its effectiveness by 24 h; also recorded: provided protection from TLR4-mediated inflammation 24 hours post treatment”. Besides, the “inhibition of LPS-mediated inflammation” value at TLR4 [1] (immediately after treatment) is on record as “completely inhibit LPS-mediated inflammation”. Moreover, the CXCL10 gene expression at TLR4 [5] (3 μM TAK-242 pretreatment 30 min, 24 h after 2 μg/mL LPS, LPS alone 26-fold) worked out at 0.91 fold. Moreover, at TLR4 [5] (3 μM TAK-242 pretreatment 30 min, 24 h after 2 μg/mL LPS, LPS alone 55-fold), the CCL2 gene expression was 1.01 fold. In addition, the “proinflammatory cytokines IL-6, CXCL1, CXCL10, CCL2, TNF-α in culture media” value at TLR4 [5] (TAK-242 pretreatment, 24 h after LPS challenge, versus LPS alone) is reported as “significantly lower levels of these cytokines”. In addition, the “cure time and glycemic control, islet dose titration” value in data set [6] (100 TAK-242-treated islets) is “delayed cure time and exhibited significant average glycemic lability”; in [6] (200 and 150 TAK-242-treated islets), “quick cure times and good glycemic control”. In addition, the “mean nonfasting blood glucose” value in data set [6] (100 islets, 4 weeks) is given as “demonstrated some control”. Further, the “mean time to cure” value in [6] (100 islets, cured = two consecutive glucose measurements below 200 mg/dL) came out at 21.0 ± 4.9 days. In addition, the “toxicity to beta cells (MTT viability)” value in the data set with MIN6 cells is “negligible toxicity”.
`CCOC(=O)C1=CCCCC1S(=O)(=O)N(C(=O)OC(CCCCCN=[N+]=[N-])CS(=O)(=O)c1ccccc1)c1ccc(F)cc1Cl` (stereo not shown) [TAK-PhSO2-Linker]: the “inhibition of TLR4-mediated NFkB upregulation after LPS challenge” value against hTLR4 was “negligible TLR4-antagonist activity; also recorded: provided no protection; also recorded: no significant protection”. Moreover, the half-life in data set [7] is about 1500 min. Also, at TLR4 [2], the “increase in IL-6 expression” value is about 3 fold. For the same molecule, at TLR4 [1], the “protection from LPS challenge (IL-6 expression)” value is recorded as “significantly protected from LPS challenge; also recorded: significantly better than that of free TAK-242 alone; also recorded: significantly protected against LPS-mediated inflammation”.
